This is an account of results in patent publication US20250018014A1, “METHOD FOR TREATING AND/OR PREVENTING REGNASE-1-RELATED DISEASE” (OSAKA UNIVERSITY, priority 2018, published 2025).

Residues, ends and D or L forms follow the SMILES beside them. No end group written: not given here.

One experiment deals with T1, FL_Reg1 (Homo sapiens, UniProt Q5D1E8).
T1 construct: made in house; host or cells: Expi293 cells
T1 sequence (Q5D1E8 1-599): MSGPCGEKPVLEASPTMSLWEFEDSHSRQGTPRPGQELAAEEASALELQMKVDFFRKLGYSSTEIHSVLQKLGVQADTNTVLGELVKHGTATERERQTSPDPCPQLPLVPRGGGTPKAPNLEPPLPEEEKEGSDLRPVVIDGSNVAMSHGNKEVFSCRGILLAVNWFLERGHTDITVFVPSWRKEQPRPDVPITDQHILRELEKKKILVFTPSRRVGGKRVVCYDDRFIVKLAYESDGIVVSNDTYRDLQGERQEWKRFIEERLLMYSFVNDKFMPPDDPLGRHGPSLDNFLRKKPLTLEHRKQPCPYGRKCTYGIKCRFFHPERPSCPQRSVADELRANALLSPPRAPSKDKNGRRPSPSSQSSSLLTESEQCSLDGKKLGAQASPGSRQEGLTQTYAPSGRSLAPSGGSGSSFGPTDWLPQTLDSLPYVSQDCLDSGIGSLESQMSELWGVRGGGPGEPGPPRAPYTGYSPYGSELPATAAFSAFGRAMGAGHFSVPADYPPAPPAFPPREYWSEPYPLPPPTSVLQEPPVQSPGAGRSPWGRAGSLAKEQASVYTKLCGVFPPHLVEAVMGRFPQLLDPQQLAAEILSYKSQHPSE
The experiment can be described thus: Binding of Regnase-1 and peptide compounds (affinity mass analysis, SEC then LC/MS). To be noted: 1 μM FL_Reg1, final compound concentration 1 μM, 23° C. for one hour. As for the experimental part: To a 96 PP plate (Greiner bio-one, 651201) coated with lipidure (Lipidure-CM5206) (NOF CORPORATION, 71S42000001), 2 μL of Tris-Buffer (25 mM Tris-NaOH pH 8.3, 300 mM NaCl, 1 mM DTT, 1 mM EDTA, 1% DMSO) was dispensed, and then 1 mM DMSO sample was added at 20 nL each with a LABCYTE ECHO (registered trademark) acoustic dispensing system. Furthermore, 18 μL of protein prepared at 1 μM FL_Reg1 in advance using Tris-Buffer was added (final compound concentration: 1 μM), and the mixture was incubated in the dark at 23° C. for one hour. Then, to a 96-well, 400 μL, Hydrophilic PVDF 0.45 μm, Long drip (Harvard, 74-5556), 100 μL of P-2, Fine (Bio-Rad, 1504114) which had been swollen in advance was added, and conditioning was performed by centrifuging several times at 2000× G for two minutes using the buffer. Next, 20 μL of the sample after incubation was added to the conditioned 96-well, 400 μL, Hydrophilic PVDF 0.45 μm, Long drip, and SEC treatment was performed by centrifugation at 2000×G for two minutes. To the liquid from SEC, 32 μL of acetonitrile (LC/MS grade, FUJIFILM Wako Pure Chemical Industries, Ltd.) supplemented with 0.1% formic acid (LC/MS grade, 067-04531, FUJIFILM Wako Pure Chemical Industries, Ltd.) was added, and this was centrifuged at 1800×G for five minutes, and the supernatant was used as an analysis sample for LC/MS measurement. Binding to Regnase-1 was detected for all of the peptide compounds, PP1 to PP25.

Experiment [1] deals with T2, FL_Reg1 (full-length human Regnase-1) phosphorylation by IKKβ (Homo sapiens, UniProt Q5D1E8).
T2 construct: made in house; host or cells: Expi293 cells
T2 sequence (Q5D1E8 1-599): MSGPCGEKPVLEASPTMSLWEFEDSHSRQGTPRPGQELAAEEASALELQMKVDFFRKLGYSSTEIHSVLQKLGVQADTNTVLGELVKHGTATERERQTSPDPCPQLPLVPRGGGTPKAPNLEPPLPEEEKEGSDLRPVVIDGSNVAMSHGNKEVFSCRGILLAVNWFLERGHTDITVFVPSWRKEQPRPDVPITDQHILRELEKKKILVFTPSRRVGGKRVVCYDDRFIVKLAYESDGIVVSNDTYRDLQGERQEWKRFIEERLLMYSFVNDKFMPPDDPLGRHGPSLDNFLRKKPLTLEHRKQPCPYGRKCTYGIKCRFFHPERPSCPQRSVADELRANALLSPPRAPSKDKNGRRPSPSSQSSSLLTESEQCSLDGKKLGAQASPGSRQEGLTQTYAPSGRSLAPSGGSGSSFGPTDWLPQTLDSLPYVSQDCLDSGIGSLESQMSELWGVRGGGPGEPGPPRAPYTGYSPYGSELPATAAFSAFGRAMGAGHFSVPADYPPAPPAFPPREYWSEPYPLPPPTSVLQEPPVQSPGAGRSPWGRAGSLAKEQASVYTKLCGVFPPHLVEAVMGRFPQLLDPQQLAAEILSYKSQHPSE
The experiment can be described thus: Regnase-1 phosphorylation inhibition by compounds (AlphaScreen), IKKβ, full-length Regnase-1. To be noted: Table 14; phosphorylation by IKKβ; read-out: Phosphorylation inhibition FL_Reg1, 50% inhibition concentration (IKKβ). It is filed as biochemical. The gist of the method: (§1)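 FLAG/BirA-tagged human Regnase-1 constructs (full-length, 1–546 or 301–599), expressed in Expi293 cells, were used at 2 nM with compound and phosphorylated by IKKβ or TBK1 with 10 μM ATP, DTT, vanadate and MnCl2 for 2 h at room temperature. Phospho-Regnase-1 was read by AlphaScreen; IC50 came from % inhibition curves normalised to DMSO and Regnase-1-alone signals.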

The target of experiment [2] is T3, binding between IKKβ and full-length Regnase-1 (FL_Reg1) (Homo sapiens, UniProt Q5D1E8).
T3 construct: made in house; host or cells: Expi293 cells
T3 sequence (Q5D1E8 1-599): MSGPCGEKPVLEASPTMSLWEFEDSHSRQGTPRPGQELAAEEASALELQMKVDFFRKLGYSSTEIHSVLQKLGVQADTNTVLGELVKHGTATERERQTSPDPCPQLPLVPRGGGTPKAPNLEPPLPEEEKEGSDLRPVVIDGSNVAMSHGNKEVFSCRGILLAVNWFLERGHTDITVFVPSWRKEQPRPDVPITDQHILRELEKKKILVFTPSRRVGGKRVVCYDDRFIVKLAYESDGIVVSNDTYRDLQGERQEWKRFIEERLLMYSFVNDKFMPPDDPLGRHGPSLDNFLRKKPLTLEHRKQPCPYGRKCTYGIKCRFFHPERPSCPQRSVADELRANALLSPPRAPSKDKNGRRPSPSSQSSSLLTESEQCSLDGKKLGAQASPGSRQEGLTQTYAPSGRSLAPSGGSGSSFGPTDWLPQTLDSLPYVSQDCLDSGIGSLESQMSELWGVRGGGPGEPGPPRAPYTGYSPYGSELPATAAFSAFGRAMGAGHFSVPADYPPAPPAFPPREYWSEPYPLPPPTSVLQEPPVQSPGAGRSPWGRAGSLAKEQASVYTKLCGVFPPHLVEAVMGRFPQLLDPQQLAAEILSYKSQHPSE
The experiment in a line: Inhibition of kinase-Regnase-1 binding by the compounds (AlphaScreen), IKKβ. To be noted: Table 14; binding between IKKβ and Regnase-1; read-out: Binding inhibition FL_Reg1, 50% inhibition concentration (IKKβ). The gist of the method: (§2)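 FLAG-tagged, biotin-acceptor-tagged full-length human Regnase-1 was expressed in Expi293 cells. It was mixed at 2.5 nM with compound, then 2.5 nM IKKβ or TBK1 was added for 2 h at room temperature. Binding was read with anti-FLAG acceptor and glutathione donor beads; IC50 came from dose-response inhibition relative to Regnase-1 alone and DMSO.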

Experiment [3] addresses T4, FL_Reg1 (full-length human Regnase-1) phosphorylation by TBK1 (Homo sapiens, UniProt Q5D1E8).
T4 construct: made in house; host or cells: Expi293 cells
T4 sequence (Q5D1E8 1-599): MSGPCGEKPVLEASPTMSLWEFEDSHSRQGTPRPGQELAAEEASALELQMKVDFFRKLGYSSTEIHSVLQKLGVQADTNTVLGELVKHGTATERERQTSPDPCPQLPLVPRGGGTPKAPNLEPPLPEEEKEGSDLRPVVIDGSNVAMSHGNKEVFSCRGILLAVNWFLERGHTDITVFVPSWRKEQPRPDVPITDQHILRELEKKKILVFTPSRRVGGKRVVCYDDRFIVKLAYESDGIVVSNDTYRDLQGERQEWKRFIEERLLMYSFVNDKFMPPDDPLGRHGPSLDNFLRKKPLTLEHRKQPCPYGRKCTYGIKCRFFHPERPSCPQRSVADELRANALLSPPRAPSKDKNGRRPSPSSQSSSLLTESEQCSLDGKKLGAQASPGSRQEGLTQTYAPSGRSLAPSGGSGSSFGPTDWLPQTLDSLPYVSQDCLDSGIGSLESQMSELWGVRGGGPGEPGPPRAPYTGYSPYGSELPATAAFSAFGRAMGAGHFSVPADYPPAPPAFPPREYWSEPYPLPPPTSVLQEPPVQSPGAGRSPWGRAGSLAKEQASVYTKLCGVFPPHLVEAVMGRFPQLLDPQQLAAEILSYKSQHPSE
The experiment can be described thus: Regnase-1 phosphorylation inhibition by compounds (AlphaScreen), TBK1, full-length Regnase-1. The format is biochemical. To be noted: Table 13; phosphorylation by TBK1; read-out: Phosphorylation inhibition FL_Reg1, 50% inhibition concentration (TBK1). The gist of the method:
as §1

The target in experiment [4] is T5, binding between TBK1 and full-length Regnase-1 (FL_Reg1) (Homo sapiens, UniProt Q5D1E8).
T5 construct: made in house; host or cells: Expi293 cells
T5 sequence (Q5D1E8 1-599): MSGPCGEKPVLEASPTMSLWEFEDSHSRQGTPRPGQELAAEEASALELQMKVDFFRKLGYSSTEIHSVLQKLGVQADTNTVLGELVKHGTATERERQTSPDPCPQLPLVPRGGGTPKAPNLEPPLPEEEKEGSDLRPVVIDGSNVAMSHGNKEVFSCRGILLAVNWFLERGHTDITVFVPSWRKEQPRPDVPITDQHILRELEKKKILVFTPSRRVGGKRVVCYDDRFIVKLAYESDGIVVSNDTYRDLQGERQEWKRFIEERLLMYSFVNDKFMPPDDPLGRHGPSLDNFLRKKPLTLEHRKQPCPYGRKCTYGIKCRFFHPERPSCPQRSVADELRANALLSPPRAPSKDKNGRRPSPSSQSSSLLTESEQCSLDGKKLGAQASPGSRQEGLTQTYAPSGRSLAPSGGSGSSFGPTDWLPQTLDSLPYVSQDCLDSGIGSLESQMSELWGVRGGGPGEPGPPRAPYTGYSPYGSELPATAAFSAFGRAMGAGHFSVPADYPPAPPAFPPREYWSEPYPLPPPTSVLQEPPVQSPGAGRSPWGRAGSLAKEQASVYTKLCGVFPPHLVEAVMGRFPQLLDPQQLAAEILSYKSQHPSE
The experiment can be described thus: Inhibition of kinase-Regnase-1 binding by the compounds (AlphaScreen), TBK1. The note with it: Table 13; binding between TBK1 and Regnase-1; read-out: Binding inhibition FL_Reg1, 50% inhibition concentration (TBK1). The gist of the method: as §2

The target in experiment [5] is T6, Peptide 2 (AFPPREYWSEPYPLPPPTC-NH2), biotin-conjugated (human, also: biotin-conjugated, position not given here).
T6 peptide: AFPPREYWSEPYPLPPPTC-NH2
The experiment can be described thus: flow cytometry of streptavidin beads carrying the biotinylated antigen, anti-rabbit IgG Alexa488. How it is done:
These beads were mixed with each anti-Regnase-1 antibody, and they were allowed to react. Thereafter, Anti-Rabbit IgG1 Alexa488 (molecular probes, A21244) was mixed and reacted, and analysis was performed with iQue screener PLUS (intellicyt). Data was analyzed with FlowJo ver10.

As to `CC(C)[C@@H]1NC(=O)[C@H](Cc2c[nH]c3ccccc23)NC(=O)[C@H](CCCCN)NC(=O)[C@H](Cc2c[nH]c3ccccc23)NC(=O)[C@H](CCC(N)=O)NC(=O)[C@H](CCCNC(=N)N)NC(=O)[C@H](Cc2ccccc2)NC(=O)[C@H](CCCNC(=N)N)NC(=O)[C@H](C)N(C)C(=O)C[C@@H](C(=O)N2CCCC2)NC(=O)[C@@H]2CCCN2C(=O)[C@H](Cc2ccc(O)cc2)NC1=O` [PP13] (HELM PEPTIDE1{[meA].R.F.R.Q.W.K.W.V.Y.P.D.[C1CCN([*:1])C1]}$PEPTIDE1,PEPTIDE1,1:R1-12:R3$$$V2.0), the “AS-MS ratio(%)” value on FL_Reg1 stood at 0.1%. For the same molecule, the IC50 in experiment [1] came out at 3.6 µM; in experiment [2], 16.9 µM; in experiment [3] it was 8.4 µM; in experiment [4] it was 13.8 µM.

B1: REB0014 (antibody, V domains shown)
VH: QSLEESGGGLVKPGGTLTLTCKASGIDFSSYYYMCWVRQAPGKGLEWIACIYSGDGSSYYVSWANGRFTISKTSSATVTLQMTSLTAADTATYFCARDLGNLWGPGTLVTVSS
VL: QVLTQTPASVSAAVGGTVTINCQASQSVYKNSGLSWFQQKPGQSPKRLIYSASTLDSGVPSRFKGSGSGTQFTLTISDVQCDDAATYYCLGIYVCSSVDCGAFGGGTEVVVKG
notes: Cloned from immunized rabbits, expressed in HEK293 cells, purified by Protein A; also called anti-Regnase-1 antibody; anti-non-phosphorylated Regnase-1 peptide antibody
B1: the binding result in experiment [5] was “binds”.

B2: REB0007 (antibody, V domains shown)
VH: QEQLEESGGDLVKPEGSLTLTCTASGFSFNSRYWICWVRQAPGKGLEWIGCIVSGDSNTYYASWAKGRFTISKTSSTTVTLQMTSLTAADTATYFCARWYTSSRPGLWGPGTLVTVSS
VL: DVVMTQTPASVSEPVGGTVTIKCQASQSISSYLSWYQQKPGQPPKLLIYSATNLASGVSSRFKGSRFGTEFTLTISDLECDDAATYYCQCSYYVSGFAFGGGTEVVVKG
notes: as for B1
On to B2, for which, in experiment [5], the binding result is reported as “binds”.

B3: REB0022 (antibody, V domains shown)
VH: QEQLEESGGDLVKPEGSLTLTCTASGGSFSSRYWMCWVRQAPGKGLEWIACIVIGDRNNYYASWAKGRFTISKTSSTTVTLQMTSLTAADTATYFCARWHSSTAPSLWGPGTLVTVSS
VL: DVVMTQTPASVSEPVGGTVTINCQASQSISSYLSWYQQKPGQPPKLLIYKASTLASGVSSRFKGSGSGTEFTLTISDLECADAATYYCQCSYYVSGFVFGGGTEVVVKG
notes: as for B1
As to B3, the binding result in experiment [5] is given as “binds”.
